pIC50: −log10 of the molar value.
Assays:
TK-10 = type: cell-based; conditions: TK-10
MDA-MB-435 = type: cell-based; conditions: MDA-MB-435
UACC-62 = type: cell-based; conditions: UACC-62
IGROV1 = type: cell-based; conditions: IGROV1
SK-MEL-28 = type: cell-based; conditions: SK-MEL-28
OVCAR-5 = type: cell-based; conditions: OVCAR-5
HCC-2998 = type: cell-based; conditions: HCC-2998
HOP-92 = type: cell-based; conditions: HOP-92
OVCAR-4 = type: cell-based; conditions: OVCAR-4
SF-268 = type: cell-based; conditions: SF-268
[1] = molecular target: T1, TOP II (Topoisomerase II) (Homo sapiens, UniProt P11388); test: TOP II-catalyzed relaxation of plasmid DNA assay; type: biochemical
T1 construct: purchased TopoGEN TG-2000H-1
T1 sequence (P11388 whole entry): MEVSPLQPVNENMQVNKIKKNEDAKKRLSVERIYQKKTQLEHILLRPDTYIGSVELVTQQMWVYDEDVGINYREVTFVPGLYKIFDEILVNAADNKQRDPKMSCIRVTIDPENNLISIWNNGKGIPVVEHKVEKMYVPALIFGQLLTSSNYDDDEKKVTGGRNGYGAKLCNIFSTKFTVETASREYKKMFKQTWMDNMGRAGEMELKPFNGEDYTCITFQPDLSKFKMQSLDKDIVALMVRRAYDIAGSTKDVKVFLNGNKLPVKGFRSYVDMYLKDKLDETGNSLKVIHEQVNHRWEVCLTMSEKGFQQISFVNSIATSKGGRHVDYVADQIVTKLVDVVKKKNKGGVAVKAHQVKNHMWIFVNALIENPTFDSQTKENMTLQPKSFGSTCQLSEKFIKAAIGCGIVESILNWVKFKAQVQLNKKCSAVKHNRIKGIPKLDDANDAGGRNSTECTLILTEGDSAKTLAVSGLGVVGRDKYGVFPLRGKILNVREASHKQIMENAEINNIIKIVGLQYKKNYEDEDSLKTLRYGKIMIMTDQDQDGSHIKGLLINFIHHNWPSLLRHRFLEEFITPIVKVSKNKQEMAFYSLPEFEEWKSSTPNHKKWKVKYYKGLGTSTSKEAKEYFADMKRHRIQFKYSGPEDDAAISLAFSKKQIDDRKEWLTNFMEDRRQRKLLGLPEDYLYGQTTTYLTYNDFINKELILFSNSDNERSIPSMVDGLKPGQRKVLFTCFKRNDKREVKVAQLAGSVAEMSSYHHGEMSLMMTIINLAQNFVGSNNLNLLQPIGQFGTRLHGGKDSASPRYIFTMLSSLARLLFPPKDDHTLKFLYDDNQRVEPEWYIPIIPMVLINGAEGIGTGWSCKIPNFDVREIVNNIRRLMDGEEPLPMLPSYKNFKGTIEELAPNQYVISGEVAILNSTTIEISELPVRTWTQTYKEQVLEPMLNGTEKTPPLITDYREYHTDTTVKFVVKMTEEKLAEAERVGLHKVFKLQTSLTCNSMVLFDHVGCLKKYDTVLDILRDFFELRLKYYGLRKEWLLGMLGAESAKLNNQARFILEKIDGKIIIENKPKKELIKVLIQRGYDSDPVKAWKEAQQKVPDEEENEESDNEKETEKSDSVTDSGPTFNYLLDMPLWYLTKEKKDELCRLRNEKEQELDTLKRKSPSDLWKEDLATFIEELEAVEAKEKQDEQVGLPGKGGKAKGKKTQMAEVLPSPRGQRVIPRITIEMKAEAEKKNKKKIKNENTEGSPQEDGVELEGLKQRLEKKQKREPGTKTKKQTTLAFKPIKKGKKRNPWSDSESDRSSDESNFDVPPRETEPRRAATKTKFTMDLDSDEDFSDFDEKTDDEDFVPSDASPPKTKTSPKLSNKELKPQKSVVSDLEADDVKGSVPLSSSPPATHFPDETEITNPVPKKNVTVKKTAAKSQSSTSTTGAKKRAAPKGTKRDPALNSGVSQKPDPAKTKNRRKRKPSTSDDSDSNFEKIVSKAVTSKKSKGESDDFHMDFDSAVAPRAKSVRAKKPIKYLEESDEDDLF
Description: We also performed TOP II-catalyzed relaxation of plasmid DNA assays (FIG. 5-7) to evaluate if compounds could inhibit TOP II. […] The IC50 value of compounds 7, N7, N8, N14, N15, N18, and N19 were about 10, 10, 1, 10, 5, 1, and 1 μM, respectively (detect by TopoGEN TG2005H, TG-2000H-1).

CAKI-1 = type: cell-based; conditions: CAKI-1, five dose
UACC-257 = type: cell-based; conditions: UACC-257
M14 = type: cell-based; conditions: M14
MALME-3M = type: cell-based; conditions: MALME-3M
TOP I (Topoisomerase I) = molecular target: T2, TOP I (Topoisomerase I) (Homo sapiens, UniProt P11387); test: TOP I mediated supercoiled DNA relaxation assay; type: biochemical; conditions: five different concentrations; TopoGEN TG2005H, TG-2000H-1
T2 construct: purchased TopoGEN TG2005H
T2 sequence (P11387 1-765): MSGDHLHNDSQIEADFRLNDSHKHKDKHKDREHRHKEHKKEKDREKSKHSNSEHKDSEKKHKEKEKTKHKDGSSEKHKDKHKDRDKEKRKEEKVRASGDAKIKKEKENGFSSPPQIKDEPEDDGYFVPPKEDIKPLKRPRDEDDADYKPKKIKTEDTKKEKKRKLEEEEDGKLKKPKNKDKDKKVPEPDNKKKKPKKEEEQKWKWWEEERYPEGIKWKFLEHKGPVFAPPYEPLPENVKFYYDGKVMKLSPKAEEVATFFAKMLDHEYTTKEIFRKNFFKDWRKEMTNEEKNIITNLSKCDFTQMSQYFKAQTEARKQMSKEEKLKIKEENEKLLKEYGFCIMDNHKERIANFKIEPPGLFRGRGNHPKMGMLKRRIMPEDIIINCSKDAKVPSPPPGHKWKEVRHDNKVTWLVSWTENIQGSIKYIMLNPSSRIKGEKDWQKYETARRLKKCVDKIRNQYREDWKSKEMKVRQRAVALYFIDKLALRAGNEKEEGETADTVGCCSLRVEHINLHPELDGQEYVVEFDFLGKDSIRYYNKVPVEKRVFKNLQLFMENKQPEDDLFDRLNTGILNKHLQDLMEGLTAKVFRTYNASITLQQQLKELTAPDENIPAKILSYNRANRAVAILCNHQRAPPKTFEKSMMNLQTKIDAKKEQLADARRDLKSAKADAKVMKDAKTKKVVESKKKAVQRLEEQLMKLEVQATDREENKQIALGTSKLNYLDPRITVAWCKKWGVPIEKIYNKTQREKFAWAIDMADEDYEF

A498 = type: cell-based; conditions: A498
SK-MEL-2 = type: cell-based; conditions: SK-Mel-2
NCI/ADR-RES = type: cell-based; conditions: NCI/ADR-RES
SNB-19 = type: cell-based; conditions: SNB-19
OVCAR-3 = type: cell-based; conditions: OVCAR-3, five dose
SF-539 = type: cell-based; conditions: SF-539
[2] = Homo sapiens, five dose, read-out: LC50 (the source's name)

O=c1c2cc(Cl)ccc2sc2c(NCCCNCCO)nc3ccccc3c12 [Compound N19, 10-Chloro-6-((3-((2-hydroxyethyl)amino)propyl)amino)-12H-thiochromeno[2,3-c]quinolin-12-one]
GI50 (TK-10; Homo sapiens, five dose): 2090 nM
CC50 (TK-10; [2]): 6690 nM
Growth percent (TK-10; 10^−5 molar): −92.61%
TGI (TK-10; five dose): 3740 nM
GI50 (MDA-MB-435; Homo sapiens, five dose): 1590 nM
CC50 (MDA-MB-435; [2]): 5620 nM
Growth percent (MDA-MB-435; 10^−5 molar): −88.95%
TGI (MDA-MB-435; five dose): 2990 nM
GI50 (UACC-62; Homo sapiens, five dose): 1810 nM
CC50 (UACC-62; [2]): 6390 nM
Growth percent (UACC-62; 10^−5 molar): −77.63%
TGI (UACC-62; five dose): 3400 nM
GI50 (IGROV1; Homo sapiens, IGROV-1, five dose): 1660 nM
Growth percent (IGROV1; 10^−5 molar): −43.25%
TGI (IGROV1; five dose): 3600 nM
GI50 (SK-MEL-28; Homo sapiens, five dose): 1890 nM
Growth percent (SK-MEL-28; 10^−5 molar): −94.33%
TGI (SK-MEL-28; five dose): 3560 nM
GI50 (OVCAR-5; Homo sapiens, five dose): 1630 nM
CC50 (OVCAR-5; [2]): 7530 nM
Growth percent (OVCAR-5; 10^−5 molar): −65.05%
TGI (OVCAR-5; five dose): 3500 nM
Growth percent (HCC-2998; 10^−5 molar): −74.47%
TGI (HCC-2998; five dose): 3420 nM
GI50 (HCC-2998; Homo sapiens, five dose): 1580 nM
Growth percent (HOP-92; 10^−5 molar): 23.01%
TGI (HOP-92; five dose): 4580 nM
GI50 (HOP-92; Homo sapiens, five dose): 1230 nM
GI50 (OVCAR-4; Homo sapiens, five dose): 1600 nM
Growth percent (OVCAR-4; 10^−5 molar): 12.32%
TGI (OVCAR-4; five dose): 3230 nM
GI50 (SF-268; Homo sapiens, five dose): 1670 nM
Growth percent (SF-268; 10^−5 molar): 17.28%
TGI (SF-268; five dose): 3350 nM
pIC50 ([1]; five different concentrations, TopoGEN TG2005H, TG-2000H-1, read-out: IC50 value, TOP II mediated supercoiled DNA relaxation): ~6.00
inhibitory effect in TOP II relaxation assay compared with VP-16 ([1]; primary assay at 25 and/or 50 μM): more potent inhibitory effects than the positive agent VP-16
TGI (CAKI-1): 2690 nM
GI50 (CAKI-1; Homo sapiens): 1330 nM
CC50 (CAKI-1; Homo sapiens, read-out: LC50 (the source's name)): 5450 nM
GI50 (UACC-257; Homo sapiens, five dose): 1860 nM
CC50 (UACC-257; [2]): 6330 nM
Growth percent (UACC-257; 10^−5 molar): 45.70%
TGI (UACC-257; five dose): 3440 nM
GI50 (M14; Homo sapiens, five dose): 1830 nM
Growth percent (M14; 10^−5 molar): 6.12%
TGI (M14; five dose): 3530 nM
GI50 (MALME-3M; Homo sapiens, five dose): 2150 nM
Growth percent (MALME-3M; 10^−5 molar): −34.30%
TGI (MALME-3M; five dose): 4330 nM
pIC50 (TOP I (Topoisomerase I)): ~5.30
Growth percent (A498; 10^−5 molar): 61.88%
TGI (A498; five dose): 3620 nM
GI50 (A498; Homo sapiens, five dose): 1270 nM
CC50 (A498; [2]): 15000 nM
GI50 (SK-MEL-2; Homo sapiens, five dose): 2050 nM
Growth percent (SK-MEL-2; 10^−5 molar): 53.64%
TGI (SK-MEL-2; five dose): 3770 nM
GI50 (NCI/ADR-RES; Homo sapiens, five dose): 1820 nM
Growth percent (NCI/ADR-RES; 10^−5 molar): 26.35%
TGI (NCI/ADR-RES; five dose): 3630 nM
GI50 (SNB-19; Homo sapiens, five dose): 1640 nM
Growth percent (SNB-19; 10^−5 molar): 46.07%
TGI (SNB-19; five dose): 3260 nM
GI50 (OVCAR-3; Homo sapiens): 1790 nM
TGI (OVCAR-3): 3510 nM
GI50 (SF-539; Homo sapiens, five dose): 1700 nM
Growth percent (SF-539; 10^−5 molar): −47.59%
TGI (SF-539; five dose): 3220 nM

Source: patent publication US8927717B1, “Thiochromeno[2,3-c]quinolin-12-one derivatives, preparation method and application thereof” (National Defense Medical Center, priority 2014, dated 2015)
